Consider three compounds from patent US20260234107A1, “TRYPTAMINES AND METHODS OF TREATING MOOD DISORDERS” (priority 2022, published 2026).

Data set [1] has as its system monoamine oxidase A and B (MAO-A and MAO-B). Nature of the data set: Stability in the presence of monoamine oxidases (human liver mitochondria preparation). Also on record: half-life / microsomal CLint: dose or concentration left out as unconfirmed. The conditions noted are these: for Remaining (t = 60 min) / half-life / microsomal CLint: human liver mitochondria; for half-life / microsomal CLint: human, pH 7.4; for stability in the presence of MAO (in words): human liver mitochondria preparation. As for the experimental part:
Liver Mitochondria Incubations. Human liver mitochondria (Xenotech H0610.M) were used.

Data set [2] deals with T1, 5-HT2A (Homo sapiens, UniProt P28223). Nature of the data set: FLIPR Ca2+ flux agonist assay at 5-HT2A. Also on record: host or cells: HEK293. The note with it: for 5-HT2A % Act @ Max Dose: HEK293, max dose. Format: cell-based. (Calcium assays in cells follow changes in intracellular calcium, usually with a dye or a luminescent sensor.)
T1 sequence (P28223 whole entry): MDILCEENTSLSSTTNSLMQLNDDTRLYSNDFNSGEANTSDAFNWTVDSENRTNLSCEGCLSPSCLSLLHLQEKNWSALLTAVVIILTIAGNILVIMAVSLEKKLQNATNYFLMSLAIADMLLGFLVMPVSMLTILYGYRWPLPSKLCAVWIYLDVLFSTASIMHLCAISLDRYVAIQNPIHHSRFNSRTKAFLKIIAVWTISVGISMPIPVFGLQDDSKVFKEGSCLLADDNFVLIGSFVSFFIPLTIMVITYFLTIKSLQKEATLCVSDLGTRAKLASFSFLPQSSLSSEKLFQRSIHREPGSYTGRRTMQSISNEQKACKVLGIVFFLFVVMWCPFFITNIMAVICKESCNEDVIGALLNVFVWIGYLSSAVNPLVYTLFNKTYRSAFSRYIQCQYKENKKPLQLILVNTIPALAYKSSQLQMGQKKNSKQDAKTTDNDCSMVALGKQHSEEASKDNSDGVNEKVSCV
Data set [3] has as its target T2, 5-HT2C receptor (Homo sapiens, UniProt P28335).
T2 sequence (P28335 33-458): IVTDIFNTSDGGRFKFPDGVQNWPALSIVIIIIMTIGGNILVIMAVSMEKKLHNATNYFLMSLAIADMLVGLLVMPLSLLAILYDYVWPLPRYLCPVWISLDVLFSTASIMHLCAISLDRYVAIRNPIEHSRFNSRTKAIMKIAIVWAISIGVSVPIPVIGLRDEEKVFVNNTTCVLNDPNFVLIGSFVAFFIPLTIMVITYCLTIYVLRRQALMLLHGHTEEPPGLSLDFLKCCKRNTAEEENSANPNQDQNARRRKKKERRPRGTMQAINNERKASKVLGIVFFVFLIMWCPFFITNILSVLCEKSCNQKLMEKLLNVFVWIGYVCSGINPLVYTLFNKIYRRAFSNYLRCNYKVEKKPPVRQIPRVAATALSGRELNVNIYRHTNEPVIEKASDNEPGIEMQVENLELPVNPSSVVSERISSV
Nature of the data set: 5-HT2C receptor radioligand binding ([3H]mesulergine). The conditions noted are these: for Ki: HEK293 stable cell line, 2 nM [3H]mesulergine; for binding to the 5-HT2C receptor (in words): compared with 5-HT2A receptor binding. The protocol:
The binding affinities of disclosed compounds at the mesulergine binding site of the 5-HT2C receptor were determined in radioligand binding experiments.
Method. Affinity of the test compounds for the 5-HT2C receptor was determined in radioligand binding experiments with [^3H]mesulergine by WuXi AppTec (Hong Kong) Limited, using methods adapted from the literature and under conditions described in Table 11.

The nature of data set [4]: Stability in mouse brain homogenate. The data set is classed as in vitro ADME, male CD-1 mice. The conditions noted are these: for half-life at 1 µM: male, CD-1; for half-life at 1 µM / % Compound Remaining (after 120 min): mouse brain homogenate, 37° C., 1 μM.
For the next data set, the target named is T3, 5-HT1A (Homo sapiens, UniProt P08908).
T3 construct: host or cells: CHO cells
T3 sequence (P08908 1-422): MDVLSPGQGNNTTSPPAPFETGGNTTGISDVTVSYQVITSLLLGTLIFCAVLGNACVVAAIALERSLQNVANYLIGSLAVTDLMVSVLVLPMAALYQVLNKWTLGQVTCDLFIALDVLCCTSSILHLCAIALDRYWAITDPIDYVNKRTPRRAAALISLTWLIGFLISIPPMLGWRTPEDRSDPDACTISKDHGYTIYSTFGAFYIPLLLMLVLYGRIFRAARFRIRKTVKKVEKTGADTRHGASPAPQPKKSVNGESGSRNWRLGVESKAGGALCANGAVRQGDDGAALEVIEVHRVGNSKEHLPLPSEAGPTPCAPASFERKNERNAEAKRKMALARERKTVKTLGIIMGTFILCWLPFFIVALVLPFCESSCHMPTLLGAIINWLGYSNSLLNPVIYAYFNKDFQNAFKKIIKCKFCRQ
The data set is described as follows: FLIPR Ca2+ flux agonist assay at 5-HT1A. Format: cell-based. The note with it: for 5-HT1A % Act @ Max Dose: Ca2+ flux, CHO cells.

In the next data set the target is T4, 5-HT2B (Homo sapiens, UniProt P41595).
T4 construct: host or cells: HEK293
T4 sequence (P41595 whole entry, species assumed): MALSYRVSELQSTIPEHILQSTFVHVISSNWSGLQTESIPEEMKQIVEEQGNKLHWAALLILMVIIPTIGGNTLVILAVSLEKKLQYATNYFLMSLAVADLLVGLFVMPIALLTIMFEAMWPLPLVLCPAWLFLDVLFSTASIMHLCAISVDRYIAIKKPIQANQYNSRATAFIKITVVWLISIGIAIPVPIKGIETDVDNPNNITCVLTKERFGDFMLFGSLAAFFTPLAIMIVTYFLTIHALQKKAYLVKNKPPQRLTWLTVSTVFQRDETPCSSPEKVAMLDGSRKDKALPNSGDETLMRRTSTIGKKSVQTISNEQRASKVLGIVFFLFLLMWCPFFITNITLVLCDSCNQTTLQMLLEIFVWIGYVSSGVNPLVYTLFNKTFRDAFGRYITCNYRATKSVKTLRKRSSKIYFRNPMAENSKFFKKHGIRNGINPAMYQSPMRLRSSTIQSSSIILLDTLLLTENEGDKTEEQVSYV
The data set is described as follows: FLIPR Ca2+ flux agonist assay at 5-HT2B. The data set is classed as cell-based. The note with it: for 5-HT2B % Act @ Max Dose: HEK293, max dose.

Data set [5] can be described thus: Stability in rat brain homogenate. Format: in vitro ADME, male Sprague Dawley rats. The note with it: for half-life at 1 µM: male, Sprague Dawley; for half-life at 1 µM / % Compound Remaining (after 120 min): rat brain homogenate, 37° C., 1 μM.
Data set [6] has as its target T1, 5-HT2A. Nature of the data set: 5-HT2A receptor radioligand binding ([3H]ketanserin). As for the experimental part:
The binding affinities of disclosed compounds at the ketanserin binding site of the 5-HT2A receptor were determined in radioligand binding experiments.
Method. Affinity of the test compounds for the 5-HT2A receptor was determined in radioligand binding experiments with [^3H]ketanserin by WuXi AppTec (Hong Kong) Limited, using methods adapted from the literature and under conditions described in Table 4.

Data set [7] can be described thus: Metabolic stability in human liver microsomes (HLM). Also on record: microsomal CLint / half-life: dose or concentration left out as unconfirmed. The note with it: both, human, pooled human liver microsomes, pH 7.4.
Data set [8] has as its target T2, 5-HT2C receptor. The data set is described as follows: cell-based. The data set is classed as cell-based. The conditions noted are these: Ca2+ flux.
The nature of data set [9]: Plasma pharmacokinetics in mice after subcutaneous administration. Format: in vivo, male C57BL/6 mice. The note with it: SC 10 mg/kg. The text has this:
Animals. […] Four mice were housed in each cage. […] All animals were provided laboratory rodent diet. […] Animals were randomly assigned to treatment groups.

The test system of another data set is rat synaptosomes. Nature of the data set: Serotonin (5-HT) release from rat synaptosomes. Format: biochemical, Male Sprague-Dawley rats. As for the experimental part: Disclosed compounds were assessed for their ability to release serotonin (5-HT) from […] (Table 9). Potency and efficacy for 5-HT release varied substantially depending on the specific compound. […] However, there was also substantial variability among 4-hydroxy compounds.
Synaptosome 5-HT Release Assay. Synaptosome release assays were conducted according to modifications of previously described procedures (Partilla et al. (2016). Interrogating the Activity of Ligands at Monoamine Transporters in Rat Brain Synaptosomes. In Neurotransmitter Transporters (pp. 41-52). Springer.). Briefly, synaptosomes were prepared from rat brains. Male Sprague-Dawley rats were rendered unconscious with CO2 and their brains were immediately removed. The cerebella were discarded and the whole brains (minus striatum) were placed in ice-cold 0.32 M sucrose (10 mL per brain) and gently homogenized by hand. The homogenate of each brain was centrifuged at 1,000×g at 4° C. for 10 mins and the resulting supernatant was diluted with ice-cold 0.32 M sucrose to a total volume of 10 mL to provide the synaptosome solution. Synaptosomes were then preloaded with 5 nM [^3H]5-HT in the presence of selective uptake inhibitors of DAT (50 nM GBR12935), NET (100 nM nomifensine), and VMAT2 (1 μM reserpine) in Krebs phosphate buffer (KPB). The incubations were allowed to reach equilibrium for 2 h at 25° C. For the release reactions, 425 μL of preloaded synaptosomes were added to test tubes containing 75 μL of test drugs diluted in KPB containing 1 mg/mL BSA. After 10 mins, the release reaction was stopped using a cell harvester by rapid vacuum filtration over GF/B filter paper presoaked in wash buffer (10 mM Tris-HCl, pH 7.4, 150 mM NaCl) and the filters were washed with additional wash buffer. Filters were dried for 1 h at 60° C. and retained radioactivity was quantified using a MicroBeta 2 liquid scintillation counter. The amount of retained radioactivity was inversely proportional to the extent of release.

[10] abbreviates: HEK293 stable cell line, 1 nM [3H]ketanserin, read-out: 5-HT2A Ki (nM) ([3H]Ketanserin).
[11] abbreviates: mouse, plasma, male C57BL/6 mice.

Where two headings read alike, the source gives them in different places.

On to `CNCCc1cn(C(C)C)c2cc(F)cc(O)c12` [Compound 12, 6-fluoro-1-isopropyl-3-(2-(methylamino)ethyl)-1H-indol-4-ol], for which, in data set [1], the “Remaining (t = 60 min)” value came to 104.0%, the half-life is more than 2.42 h and the microsomal CLint is less than 15.9 µL/min/mg. Further, the EC50 on 5-HT2A [2] was more than 1000 nM. For the same compound, at 5-HT2A [2] (Ca2+ flux), the “5-HT2A % Act @ Max Dose” value is on record as 10.55%. Further, at 5-HT2C receptor [3], the Ki is 30.8 nM and the “binding to the 5-HT2C receptor (in words)” value is reported as “potent binding to the 5-HT2C receptor”. Moreover, in data set [4], the half-life at 1 µM was determined as 4.39 h and the “% Compound Remaining (after 120 min)” value came to 72.3%. Further, at 5-HT1A, the EC50 is more than 100000 nM and the “5-HT1A % Act @ Max Dose” value worked out at 3.96%. This compound also showed an EC50 on 5-HT2B of more than 10000 nM. In addition, the “5-HT2B % Act @ Max Dose” value at 5-HT2B (Ca2+ flux) is listed as 1.74%. Besides, in data set [5], the half-life at 1 µM is 4.14 h and the “% Compound Remaining (after 120 min)” value is reported as 70.4%. Moreover, at 5-HT2A [6] (setting [10]), the inhibition constant (Ki) is more than 1230 nM. Also, in [7], the half-life is more than 2.42 h and the microsomal CLint was less than 9.6 µL/min/mg. Besides, on 5-HT2C receptor [8], a half-maximal response (EC50) required 25.3 nM, the “agonism at 5-HT2C (in words)” value was “potent partial agonism” and the “5-HT2C % Act @ Max Dose” value turned out to be 57.17%.

In the case of `Oc1cccc2[nH]cc(CCNC3CC3)c12` [Compound 4, 3-(2-(cyclopropylamino)ethyl)-1H-indol-4-ol], in [9] (mice), the “peak plasma concentration compared with 5-F-DMT (in words)” value was “much higher peak concentrations than 5-F-DMT”. In data set [9] (setting [11]), the AUC(0-t) came to 665 ng·h/mL, the Cmax came to 1220 ng/mL and the half-life was 0.62 h. The Tmax in data set [9] (mouse, plasma, male C57BL/6 mice, read-out: Tmax) was determined as 0.25 h. Moreover, in data set [1], the “stability in the presence of MAO (in words)” value is recorded as “intermediate stability”, the “Remaining (t = 60 min)” value was 72.7%, the half-life stood at 1.91 h and the microsomal CLint amounted to 20.2 µL/min/mg. For the same compound, the EC50 at 5-HT2A [2] (Ca2+ flux, HEK293, read-out: 5-HT2A EC50) worked out at 8.7 nM. In [4], the “stability in mouse brain homogenate (in words)” value was “intermediate stability”, the half-life at 1 µM turned out to be 0.883 h and the “% Compound Remaining (after 120 min)” value is 19.4%. At 5-HT1A, a half-maximal effect (EC50) was put at 6560 nM and the “5-HT1A % Act @ Max Dose” value is listed as 58.72%. At 5-HT2B (Ca2+ flux), the “agonism at 5-HT2B (in words)” value is reported as “did not” and the “5-HT2B % Act @ Max Dose” value worked out at 4.08%. In addition, in data set [5], the “stability in rat brain homogenate (in words)” value is “intermediate stability”, the half-life at 1 µM came out at 1.05 h and the “% Compound Remaining (after 120 min)” value is given as 25.2%. On 5-HT2A [6], this compound displayed a Ki of 339 nM. This compound also came in with an EC50 in the data set on rat synaptosomes (rat synaptosomes preloaded with [3H]5-HT) of 1250 nM. Also, in the data set with rat synaptosomes (rat synaptosomes, 10 μM), the “% Release @ Max Dose (10 μM)” value came to 38.87%. In data set [7], the half-life came out at 1.36 h and the microsomal CLint worked out at 17 µL/min/mg.

With `CC(C)n1cc(CCN(C)C)c2c(O)cc(F)cc21` [Compound 10, 3-(2-(dimethylamino)ethyl)-6-fluoro-1-isopropyl-1H-indol-4-ol], in [1], the “stability in the presence of MAO (in words)” value was “intermediate stability”, the “Remaining (t = 60 min)” value is on record as 55.7%, the half-life came to 1.31 h and the microsomal CLint was determined as 29.4 µL/min/mg. The same compound showed an EC50 on 5-HT2A [2] of more than 1000 nM. In addition, the “5-HT2A % Act @ Max Dose” value at 5-HT2A [2] (Ca2+ flux) turned out to be 1.28%. For the same compound, on 5-HT2C receptor [3], affinity was put at a Ki of 10.5 nM and the “binding to the 5-HT2C receptor (in words)” value is on record as “potent binding to the 5-HT2C receptor”. In data set [4], the half-life at 1 µM is more than 4.82 h and the “% Compound Remaining (after 120 min)” value worked out at 80.9%. On 5-HT1A, the EC50 is more than 100000 nM and the “5-HT1A % Act @ Max Dose” value is listed as 1.85%. Besides, the EC50 at 5-HT2B is more than 10000 nM. In addition, the “5-HT2B % Act @ Max Dose” value on 5-HT2B (Ca2+ flux) is 1.99%. For the same compound, in [5], the half-life at 1 µM is 4.49 h and the “% Compound Remaining (after 120 min)” value was determined as 71.4%. The Ki at 5-HT2A [6] (setting [10]) amounted to 1190 nM. In data set [7], this compound had a half-life of 1.78 h and a microsomal CLint of 12.9 µL/min/mg. On 5-HT2C receptor [8], the EC50 was 30.1 nM, the “agonism at 5-HT2C (in words)” value is recorded as “potent partial agonism” and the “5-HT2C % Act @ Max Dose” value was determined as 43.06%.

For orientation: half-life means the time in which the quantity being followed falls by half. In general, microsomal CLint refers to the rate of metabolic loss divided by the concentration. Broadly, the EC50 is the concentration giving half of the maximal effect. Broadly, the Ki is the equilibrium dissociation constant of an inhibitor or competing ligand from its target. In general, AUC(0-t) refers to exposure summed from dosing to a finite time, without extrapolation to infinity. Broadly, the Cmax is the highest concentration seen after dosing. One may read the Tmax as the time at which the peak concentration occurs.
